US20220395464A1, “ORALLY ADMINISTERED SOLID DOSAGE FORM DRUG” (ASCENTAWITS PHARMACEUTICALS, LTD., priority 2019, published 2022)
≈ marks a conversion by molar mass, not a printed value. Entries after “also recorded” stand apart in the source; their conditions may differ. Read-outs that look alike come from different tables or passages of the source.

Tests used:
[1] = Solution stability study of AST-3424 in different solutions (HPLC content); type: physicochemical; conditions: for Time the API is stable in solution / Content: room temperature
Method: 1.3 Solution Stability Study
About 107.32 mg of AST-3424 (50% v/v, ethanol) was taken and placed in a 50 ml-measuring flask. Then, solvents which are an organic solvent, buffer solution or purified water, were respectively added to a scale mark. At each appointed time, 1 ml of samples was measured for HPLC analysis respectively. If the API was stable in the solution with the different pH values, a sampling appointed time was extended, for instance 5 days or more.
(§1) In the solubility study, for a determination of sample contents, 1 ml of culture medium were measured respectively, and then centrifuged at 1000 rpm for 10 minutes. Subnatant after centrifugation were collected respectively for HPLC analysis. In the solution stability study, the samples may be provided directly for HPLC analysis.
(§2) The contents were determined by a HPLC method: AST-3424 was used as an external standard for quantification.
A wavelength of UVDAD detector was 230 nm. C18 column was used at a temperature of 25° C.

[2] = system: H460 non-small cell lung cancer; conditions: cited from earlier work
[3] = Solubility study of AST-3424 (shaking at 25° C., HPLC content); type: physicochemical; conditions: for solubility / solubility at 1 h / solubility at 4 h / solubility at 8 h / solubility at 24 h / solubility at 48 h: thermodynamic from solid; for solubility at 1 h / solubility at 4 h / solubility at 8 h / solubility at 24 h / solubility at 48 h: read-out: Content (solubility test)
Method: An appropriate amount of AST-3424 (hereinafter called active pharmaceutical ingredients or API) was taken and placed in a suitable container containing 40 ml of the mentioned-above solutions (20 ml for organic solvents) respectively until excess oil droplets of AST-3424 existed in the solution.
Samples were put in a constant temperature shaking incubator at 25° C. and shaken at a proper speed (100 rpm). The samples were taken and checked pH values at each appointed time as specified in Table 1. Then, the samples were centrifuged (1000 rpm, 10 minutes), and added the corresponding solution or organic solvent (to dissolve the API for solubility study) to dilute to an appropriate concentration for HPLC analysis, so as to obtain solubility data. It should be noted that the dilution ratio after test was accurately recorded.
as §1, §2
According to the solution stability results, AST-3424 is very unstable in the acetate buffer of pH 4.5. Therefore, the phosphate buffer of pH 6.8, the phosphate buffer of pH 7.4, the alkaline borate buffer of pH 10.0, and the purified water were selected for the solubility study. An appropriate amount of AST-3424 was weighed and placed in 40 ml of medium (8 ml ethanol/propylene glycol (50:50, v/v) was used), until excess flocci was present in the solution.

[4] = alkaline borate buffer, 25 °C, pH 10, aqueous buffer, pH 10.0 (Alkaline borate buffer)
[5] = ethanol/propylene glycol (50:50, v/v), 25 °C, organic solvent or mixture, Ethanol/Propylene glycol (50:50, v/v)
[6] = phosphate buffer of pH 6.8, 25 °C, pH 6.8, aqueous buffer, pH 6.8 (Phosphate buffer)
[7] = phosphate buffer of pH 7.4, 25 °C, pH 7.4, aqueous buffer, pH 7.4 Phosphate buffer
[8] = phosphate buffer, 25 °C, pH 7.4, aqueous buffer, pH 7.4 Phosphate buffer
[9] = purified water, 25 °C, water, Purified water

## C[C@H](OP(=O)(N1CC1)N1CC1)c1ccc([N+](=O)[O-])c(Oc2cccc(C(=O)N(C)C)c2)c1 [AST-3424, (S)-1-(3-(3-N,N-Dimethylaminocarbonyl)phenoxy-4-nitrophenyl)-1-ethyl-N,N′-bis(ethylene) phosphoramidate]
[1]; 1:1 solution of ethanol and propylene glycol
  Time the API is stable in solution: at least 72 hours
[1]; Acetate buffer of pH 4.5, 0 h
  Content: 0.673 mg/mL
[1]; Acetate buffer of pH 4.5, 1 h
  Content: 0.413 mg/mL
[1]; Acetate buffer of pH 4.5, 4 h
  Content: 0.218 mg/mL
[1]; Acetate buffer of pH 4.5, 8 h
  Content: 0.093 mg/mL
[1]; Acetate buffer of pH 4.5, 24 h
  Content: 0.013 mg/mL
[1]; Alkaline borate buffer of pH 10.0, 0 h
  Content: 1.265 mg/mL
[1]; Alkaline borate buffer of pH 10.0, 1 h
  Content: 1.165 mg/mL
[1]; Alkaline borate buffer of pH 10.0, 4 h
  Content: 1.261 mg/mL
[1]; Alkaline borate buffer of pH 10.0, 8 h
  Content: 1.258 mg/mL
[1]; Alkaline borate buffer of pH 10.0, 24 h
  Content: 1.261 mg/mL
[1]; Alkaline borate buffer of pH 10.0, 48 h
  Content: 1.257 mg/mL
[1]; Alkaline borate buffer of pH 10.0, 72 h
  Content: 1.242 mg/mL
[1]; Ethanol/Propylene glycol (50:50, v/v), 0 h
  Content: 1.295 mg/mL
[1]; Ethanol/Propylene glycol (50:50, v/v), 1 h
  Content: 1.287 mg/mL
[1]; Ethanol/Propylene glycol (50:50, v/v), 4 h
  Content: 1.287 mg/mL
[1]; Ethanol/Propylene glycol (50:50, v/v), 8 h
  Content: 1.287 mg/mL
[1]; Ethanol/Propylene glycol (50:50, v/v), 24 h
  Content: 1.302 mg/mL
[1]; Ethanol/Propylene glycol (50:50, v/v), 48 h
  Content: 1.284 mg/mL
[1]; Ethanol/Propylene glycol (50:50, v/v), 72 h
  Content: 1.275 mg/mL
[1]; Ethanol, 0 h
  Content: 1.238 mg/mL
[1]; Ethanol, 1 h
  Content: 1.280 mg/mL
[1]; Ethanol, 4 h
  Content: 1.246 mg/mL
[1]; Ethanol, 8 h
  Content: 1.240 mg/mL
[1]; Ethanol, 24 h
  Content: 1.240 mg/mL
[1]; Ethanol, 48 h
  Content: 1.278 mg/mL
[1]; Ethanol, 72 h
  Content: 1.236 mg/mL
[1]; Phosphate buffer of pH 6.8, 0 h
  Content: 1.202 mg/mL
[1]; Phosphate buffer of pH 6.8, 1 h
  Content: 1.200 mg/mL
[1]; Phosphate buffer of pH 6.8, 4 h
  Content: 1.193 mg/mL
[1]; Phosphate buffer of pH 6.8, 8 h
  Content: 1.185 mg/mL
[1]; Phosphate buffer of pH 6.8, 24 h
  Content: 1.168 mg/mL
[1]; Phosphate buffer of pH 6.8, 48 h
  Content: 1.145 mg/mL
[1]; Phosphate buffer of pH 6.8, 72 h
  Content: 1.102 mg/mL
[1]; Phosphate buffer of pH 7.4, 0 h
  Content: 1.267 mg/mL
[1]; Phosphate buffer of pH 7.4, 1 h
  Content: 1.266 mg/mL
[1]; Phosphate buffer of pH 7.4, 4 h
  Content: 1.266 mg/mL
[1]; Phosphate buffer of pH 7.4, 8 h
  Content: 1.262 mg/mL
[1]; Phosphate buffer of pH 7.4, 24 h
  Content: 1.262 mg/mL
[1]; Phosphate buffer of pH 7.4, 48 h
  Content: 1.249 mg/mL
[1]; Phosphate buffer of pH 7.4, 72 h
  Content: 1.228 mg/mL
[1]; Purified water, 0 h
  Content: 1.186 mg/mL
[1]; Purified water, 1 h
  Content: 1.126 mg/mL
[1]; Purified water, 4 h
  Content: 1.056 mg/mL
[1]; Purified water, 8 h
  Content: 1.005 mg/mL
[1]; Purified water, 24 h
  Content: 0.918 mg/mL
[1]; Purified water, 48 h
  Content: 0.860 mg/mL
[1]; Purified water, 72 h
  Content: 0.810 mg/mL
[1]; acetate buffer of pH 4.5
  Solution stability, in words: unstable; also recorded: very unstable
[1]; buffer of pH 7.4
  Time the API is stable in solution: at least 72 hours
[1]; buffer of pH 10.0
  Time the API is stable in solution: at least 72 hours
[1]; ethanol
  Time the API is stable in solution: at least 72 hours
[1]; phosphate buffer of pH 6.8
  Solution stability, in words: unstable; also recorded: less stable
[1]; phosphate buffer of pH 7.4
  Solution stability, in words: stable
[1]; purified water
  Solution stability, in words: unstable; also recorded: less stable
[1]; solution of pH 6.8
  Time the API is stable in solution: at least 24 hours
[2]; + TH3021 (inhibitor of AKR1C3), (Reference)
  IC50: 141 nM
[2]; without TH3021, (Reference)
  IC50: < 4.57 nM
[3]; Purified water
  Solubility, descriptive terms: Sparingly soluble
[3]; [4]
  solubility: ~23 mg/mL (≈ 50 mM)
  solubility at 1 h: 23.5 mg/mL (≈ 51 mM)
  solubility at 4 h: 23.6 mg/mL (≈ 51.2 mM)
  solubility at 8 h: 23.5 mg/mL (≈ 51 mM)
  solubility at 24 h: 23.5 mg/mL (≈ 51 mM)
  solubility at 48 h: 23.7 mg/mL (≈ 51.4 mM)
[3]; ethanol/propylene glycol (50:50, v/v)
  Solubility, descriptive terms: easily soluble; also recorded: Freely soluble (FS)
[3]; [5]
  solubility at 1 h: 271 mg/mL (≈ 589 mM)
  solubility at 4 h: 302 mg/mL (≈ 657 mM)
  solubility at 8 h: 301 mg/mL (≈ 654 mM)
  solubility at 24 h: 299 mg/mL (≈ 649 mM)
  solubility at 48 h: 274 mg/mL (≈ 595 mM)
[3]; ethanol/propylene glycol (50:50, v/v), 25 °C, organic solvent or mixture, ethanol/propylene glycol (50:50, v/v)
  solubility: > 270 mg/mL
[3]; pH 6.8 (Phosphate buffer)
  Solubility, descriptive terms: Sparingly soluble
[3]; pH 7.4 (Phosphate buffer)
  Solubility, descriptive terms: Sparingly soluble
[3]; pH 10.0 (Alkaline borate buffer)
  Solubility, descriptive terms: Sparingly soluble
[3]; [6]
  solubility at 1 h: 23 mg/mL (≈ 50 mM)
  solubility at 4 h: 22.9 mg/mL (≈ 49.8 mM)
  solubility at 8 h: 23 mg/mL (≈ 50 mM)
  solubility at 24 h: 22.6 mg/mL (≈ 49.1 mM)
  solubility at 48 h: 22.1 mg/mL (≈ 47.9 mM)
[3]; [7]
  solubility at 1 h: 23.7 mg/mL (≈ 51.4 mM)
  solubility at 4 h: 23.5 mg/mL (≈ 51 mM)
  solubility at 48 h: 23.4 mg/mL (≈ 50.8 mM)
[3]; phosphate buffer, 25 °C, pH 6.8, aqueous buffer, pH 6.8 (Phosphate buffer)
  solubility: ~23 mg/mL (≈ 50 mM)
[3]; phosphate buffer, 25 °C, pH 7.4, aqueous buffer, pH 7.4 (Phosphate buffer)
  solubility: ~23 mg/mL (≈ 50 mM)
[3]; [8]
  solubility at 8 h: 23.6 mg/mL (≈ 51.2 mM)
  solubility at 24 h: 23.7 mg/mL (≈ 51.4 mM)
[3]; purified water, 25 °C, water
  solubility: ~20 mg/mL (≈ 43.4 mM)
[3]; [9]
  solubility at 1 h: 20.9 mg/mL (≈ 45.4 mM)
  solubility at 4 h: 20.1 mg/mL (≈ 43.7 mM)
  solubility at 8 h: 19.7 mg/mL (≈ 42.7 mM)
  solubility at 24 h: 18.8 mg/mL (≈ 40.9 mM)
  solubility at 48 h: 17.8 mg/mL (≈ 38.6 mM)
